Read-outs that look alike come from different tables or passages of the source.
Assays:
Assay type in all cases: in vivo
[1] = tested on: Mycosphaerella graminicola; Anamorph: Septoria tritici; test: Leaf Blotch of Wheat (SEPTTR) disease control; settings: Zymoseptoria tritici; for pest or weed control at 100 ppm: rate 100 ppm; for pest or weed control at 121.5 g/ha: rate 121.5 g/H
Procedure, shortened: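 Preventive or curative tests: first-leaf Yuma wheat, sprayed to run-off, inoculated with S. tritici, dew chamber at 100% humidity, then greenhouse at 20° C. Severity on the first leaf is scored on a 0–100% scale and expressed as % control against untreated plants.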

[2] = tested on: Puccinia triticina; Synonym: Puccinia recondite f. Sp. Tritici; test: Wheat Brown Rust (PUCCRT) disease control; settings: Puccinia triticina, topical; for pest or weed control at 100 ppm: rate 100 ppm; for pest or weed control at 121.5 g/ha: rate 121.5 g/H
Procedure, shortened: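 Brown rust on first-leaf Yuma wheat: spore inoculation before or after spray application (acetone/Triton X-100 solution, or EC with Trycol in track spray), overnight 100% RH at 22 °C, disease developed at 24 °C. Severity scored 0–100% and converted to percent control against untreated.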

Venturia inaequalis = test: Apple Scab (VENTIN) disease control; settings: Venturia inaequalis, topical, 24 h, 1 Day Protectant, read-out: Disease Control VENTIN 1 DP
Method: Technical grades of materials were dissolved in acetone, which were then mixed with nine volumes of water containing 110 ppm Triton X-100. The fungicide solutions were applied onto wheat seedlings using an automated booth sprayer to run-off. All sprayed plants were allowed to air dry prior to further handling. All fungicides were evaluated using the aforementioned method for their activity vs. all target diseases. Wheat leaf blotch and brown rust activity were also evaluated using track spray applications, in which case the fungicides were formulated as EC formulations, containing 0.1% Trycol 5941 in the spray solutions. Wheat plants (variety Yuma) were grown from seed in a greenhouse in 50% mineral soil/50% soil-less Metro mix until the first leaf was fully emerged, with 7-10 seedlings per pot. These plants were inoculated with an aqueous spore suspension of Septoria tritici either prior to or after fungicide treatments. After inoculation the plants were kept in 100% relative humidity (one day in a dark dew chamber followed by two to three days in a lighted dew chamber at 20° C.) to permit spores to germinate and infect the leaf. The plants were then transferred to a greenhouse set at 20° C. for disease to develop. When disease symptoms were fully expressed on the 1st leaves of untreated plants, infection levels were assessed on a scale of 0 to 100 percent disease severity. Percent disease control was calculated using the ratio of disease severity on treated plants relative to untreated plants. Apple seedlings (variety McIntosh) were grown in soil-less Metro mix, with one plant per pot. Seedlings with two expanding young leaves at the top (older leaves at bottom of the plants were trimmed) were used in the test. Plants were inoculated with a spore suspension of Venturia inaequalis 24 hr after fungicide treatment and kept in a 22° C. dew chamber with 100% RH for 48 hr, and then moved to a greenhouse set at 20° C. for disease to develop. Fungicide formulation, application and disease assessment on the sprayed leaves followed the procedures as described in the Example A.

Alternaria solani = test: Tomato Early Blight (ALTESO) disease control; settings: Alternaria solani, topical, 24 h, 1 Day Protectant, read-out: Disease Control ALTESO 1 DP
Procedure, shortened: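 Acetone solutions diluted in nine volumes of water with 110 ppm Triton X-100, sprayed to run-off on 12–14-day-old tomato plants (Outdoor girl). Alternaria solani spores applied 24 h after treatment, then 100% RH dew chambers at 20° C. and a 22° C. growth room. Percent control from disease severity (0–100%) relative to untreated plants.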

[3] = 24 h, 1 Day Protectant, read-out: SEPTTR 1 DP disease control
[4] = 72 h, 3 Day Curative, read-out: SEPTTR 3 DC disease control
[5] = 24 h, 1 Day Protectant, read-out: PUCCRT 1 DP disease control
[6] = 72 h, 3 Day Curative, read-out: PUCCRT 3 DC disease control

| SMILES | pest or weed control at 100 ppm [1, 3] [%] | pest or weed control at 121.5 g/ha [1, 3] [%] | pest or weed control at 100 ppm [1, 4] [%] | pest or weed control at 121.5 g/ha [1, 4] [%] | pest or weed control at 100 ppm [2, 5] [%] | pest or weed control at 121.5 g/ha [2, 5] [%] | pest or weed control at 100 ppm [2, 6] [%] | pest or weed control at 121.5 g/ha [2, 6] [%] | pest or weed control at 100 ppm (Venturia inaequalis) [%] | pest or weed control at 100 ppm (Alternaria solani) [%] |
| --- | --- | --- | --- | --- | --- | --- | --- | --- | --- | --- |
| CCCO[C@@H]1[C@@H](Cc2ccccc2)CCC[C@H](NC(=O)c2nccc(OC)c2OCOC(=O)COCC)C(=O)O[C@H]1C [Compound F174] | 80 to 100 | 80 to 100 | 80 to 100 | 80 to 100 | 80 to 100 | 80 to 100 | 80 to 100 | 80 to 100 | 80 to 100 | 80 to 100 |
| COCC[C@H]1CCC[C@H](NC(=O)c2nccc(OC)c2OCOC(C)=O)C(=O)O[C@@H](C)[C@@H]1Oc1ccccc1 [Compound F130] | 80 to 100 | 80 to 100 | 0 to 80 | 80 to 100 | 80 to 100 | 80 to 100 | 80 to 100 | 80 to 100 | 0 to 80 | 0 to 80 |
| CCCO[C@@H]1[C@@H](Cc2ccccc2)CCC[C@H](NC(=O)c2nccc(OC)c2OCOC(C)=O)C(=O)O[C@H]1C [Compound F109] | 80 to 100 | 80 to 100 | 80 to 100 | 80 to 100 | 80 to 100 | 80 to 100 | 80 to 100 | 80 to 100 | 80 to 100 | 80 to 100 |
| CCOCC(=O)OCOc1c(OC)ccnc1C(=O)N[C@H]1CCC[C@H](Cc2ccccc2)[C@@H](OCC(C)C)[C@H](C)OC1=O [Compound F172] | 80 to 100 | 80 to 100 | 80 to 100 | 80 to 100 | 80 to 100 | 80 to 100 | 80 to 100 | 80 to 100 | 0 to 80 | 80 to 100 |
| CCCO[C@@H]1[C@@H](CCC(C)C)CCC[C@H](NC(=O)c2nccc(OC)c2OC(C)=O)C(=O)O[C@H]1C [Compound F64] | 80 to 100 | 80 to 100 | 80 to 100 | 80 to 100 | 80 to 100 | 80 to 100 | 80 to 100 | 80 to 100 | 0 to 80 | 80 to 100 |
| COc1ccnc(C(=O)N[C@H]2CCC[C@H](Cc3ccc(F)cc3F)[C@@H](OC(=O)c3ccco3)[C@H](C)OC2=O)c1OCOC(C)=O [Compound F144] |  | 80 to 100 |  | 0 to 80 |  | 80 to 100 |  |  | 80 to 100 | 80 to 100 |

Source: patent US9265253B2, “Use of macrocyclic picolinamides as fungicides” (DOW AGROSCIENCES LLC, priority 2013, dated 2016)
